Test results: patent publication US8871756B2 (Hoffmann-La Roche Inc., priority 2011, dated 2014)

system: established RSV infection; test: not given; conditions: in vivo; cited from earlier work

**Q.** For palivizumab, which “efficacy in the treatment of established RSV infection” value is on record?
**A.** not effective

system: RSV; test: not given; conditions: Phase III clinical trials; cited from earlier work

**Q.** Which benefit over palivizumab does the source give for motavizumab here?
**A.** failed to show additional benefit over palivizumab

system: RSV Long strain; test: Viral cytopathic effect (CPE) assay, anti-RSV activity; format: cell-based, Respiratory Syncytial Virus; conditions: human respiratory syncytial virus, 144 h, RSV Long strain (ATCC); cell viability after 6 days, Cell Counting kit-8
How it was run: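 Cells (6×10^3/well, DMEM with 10% FBS) were infected next day with RSV Long strain, at a dose giving approximately 80–90% CPE, alongside serial half-log compound dilutions. Viability was read after 6 days by CCK-8 absorbance at 450 nm (reference 630 nm), and EC50 was derived from it.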

**Q.** With `CCC(N)C(=O)Nc1cc(N2CCS(=O)(=O)c3ccccc3C2)nc2ccc(C)cc12` (stereo not shown) [Example 40-4, 2-Amino-N-[2-(1,1-dioxido-2,3-dihydro-1,4-benzothiazepin-4(5H)-yl)-6-methylquinolin-4-yl]butanamide] as the molecule, how does the EC50 read?
**A.** 2.65 µM

**Q.** Which EC50 does the source give for `Cc1ccc2nc(N3CCS(=O)(=O)c4ccccc4C3)cc(N3CCC(CN)CC3)c2c1` [Example 9-1, 1-{1-[2-(1,1-Dioxido-2,3-dihydro-1,4-benzothiazepin-4(5H)-yl)-6-methylquinolin-4-yl]piperidin-4-yl}methanamine] here?
**A.** 2.35 µM

**Q.** Which EC50 does the source give for `Cc1ccc2nc(N3CCS(=O)(=O)c4ccccc4C3)cc(N[C@@H]3CCOC3)c2c1` [Example 3-49, 2-(1,1-Dioxido-2,3-dihydro-1,4-benzothiazepin-4(5H)-yl)-6-methyl-N-[(3R)-tetrahydrofuran-3-yl]quinolin-4-amine] here?
**A.** 0.099 µM

**Q.** For `Cc1ccc2nc(N3CCS(=O)(=O)c4ccccc4C3)cc(NC(CO)CO)c2c1` [Example 11-1, 2-{[2-(1,1-Dioxido-2,3-dihydro-1,4-benzothiazepin-4(5H)-yl)-6-methylquinolin-4-yl]amino}propane-1,3-diol], which EC50 is on record?
**A.** 0.069 µM

**Q.** For `Cc1ccc2nc(N3CCSc4ccccc4C3)nc(N)c2c1` [Example 58, 2-(2,3-Dihydro-1,4-benzothiazepin-4(5H)-yl)-6-methylquinazolin-4-amine], which EC50 is on record?
**A.** 2.77 µM

**Q.** With `NCCCNc1cc(N2CCS(=O)(=O)c3ccccc3C2)nc2ccc(Br)cc12` [Example 9-34, N-[6-Bromo-2-(1,1-dioxido-2,3-dihydro-1,4-benzothiazepin-4(5H)-yl)quinolin-4-yl]propane-1,3-diamine] as the molecule, how does the EC50 read?
**A.** 0.024 µM

**Q.** With `CCNCCNc1cc(N2CCS(=O)(=O)c3ccccc3C2)nc2ccc(C)cc12` [Example 3-37, N-[2-(1,1-Dioxido-2,3-dihydro-1,4-benzothiazepin-4(5H)-yl)-6-methylquinolin-4-yl]-N′-ethylethane-1,2-diamine] as the molecule, how does the EC50 read?
**A.** 0.017 µM

**Q.** With `[2H]C([2H])([2H])c1ccc2nc(N3CCS(=O)(=O)c4ccccc4C3)cc(NCC3(CN)COC3)c2c1` [Example 3-65, N-{[3-(Aminomethyl)oxetan-3-yl]methyl}-2-(1,1-dioxido-2,3-dihydro-1,4-benzothiazepin-4(5H)-yl)-6-trideuteriomethylquinolin-4-amine] as the molecule, how does the EC50 read?
**A.** 0.002 µM

**Q.** Which EC50 does the source give for `Cc1ccc2nc(N3CCS(=O)(=O)c4ccccc4C3)cc(NCC3CCCCN3)c2c1` (stereo not shown) [Example 3-41, 2-(1,1-Dioxido-2,3-dihydro-1,4-benzothiazepin-4(5H)-yl)-6-methyl-N-(piperidin-2-ylmethyl)quinolin-4-amine] here?
**A.** 0.071 µM

**Q.** For `NC1(CNc2nc(N3CCS(=O)(=O)c4ccccc4C3)nc3ccc(Cl)cc23)COC1` [Example 57-6, N-[(3-Aminooxetan-3-yl)methyl]-6-chloro-2-(1,1-dioxido-2,3-dihydro-1,4-benzothiazepin-4(5H)-yl)quinazolin-4-amine], which EC50 is on record?
**A.** 0.037 µM

system: RSV infection; test: not given; conditions: selected infants; intramuscularly at 15 mg/kg once a month for the duration of RSV season; cited from earlier work

**Q.** For palivizumab, which “reduction of hospitalization rate caused by RSV infection” value is on record?
**A.** 45-55%
